# Reference: patent publication US20030144345A1, “Treatment of metabolic diseases with soraphen derivatives” (priority 2001, published 2003)
# How the values were obtained:
# [1] = tested on: HepG2 cells; assay: Fatty acid (palmitate) oxidation assay with human liver hepatoma cells HepG2; format: cell-based; details: HepG2, 10 μM
# Protocol: For routine passaging, HepG2 cells (American Type Culture Collection, ATCC) were grown in T75 flasks (Falcon, #353136) in 15 ml of Dulbecco's modified Eagle medium (DMEM, Sigma, #D5796), containing 10% heat inactivated fetal bovine serum (FBS, Summit Biotechnology, #S-100-05) and 1% Penicillin/Streptomycin (Sigma, #P4333). […] The cells were passaged once per week by trypsinization and an additional change of medium was done after 3 to 4 days after passaging.
# [2] = tested on: Wistar rats; assay: In vivo oxidation of [U-14C]palmitate (exhaled 14CO2); set-up: species or system rat; details: 30 mg/kg s.c.
# Protocol: Compound (Ia) was tested in normal Wistar rats by two different methods to assess in vivo a) direct effects on fatty acid oxidation by following the conversion of [^14C]-labeled palmitate to ^14CO2 exhaled by the animals and b) effects on total lipid utilization as determined by indirect calorimetry.
# a) In vivo oxidation of [U-^14C]palmitate. Male Wistar rats (240-360 g) were given chow food ad libitum. The day before the experiment each animal was singly caged and food was withdrawn 2.5 hours before the experiment. The animals were given [U-^14C]palmitate (5 μCi) dissolved in 500 μl of olive oil by gavage and compound (Ia) (30 mg/kg) or saline (vehicle) by subcutaneous injection. Immediately after receiving [U-^14C]palmitate and compound (Ia) or vehicle, the animals were kept singly in a metabolic chamber during six hours. The chamber was set up to allow quantive recovery of ^14CO2 exhaled by the animals. The chamber consisted of a desiccator with an elevated platform for the rat, an inlet for air at the bottom wall of the vessel. The flow of the air-exchange was controlled by a flow meter connected to a vacuum pump and set to 50 litres/hour. The temperature inside the chamber was kept at 22° C. Exhaled ^14CO2 from the animals was absorbed by a flask containing 500 ml of Carbosorb E (Canberra Packard).
# [3] = tested on: Wistar rats; assay: Lipid utilization by indirect calorimetry; format: in vivo, rat
# Source text: b) Indirect calorimetry. Substrate utilization can be measured indirectly from respiratory gas exchanges. The method is based on the measurement of oxygen (O2) consumption and carbon-dioxide (CO2) release, both originating from the oxidation of the energetic substrates that progressively release the chemical energy stored in the carbon-hydrogen bonds of carbohydrates, lipids (and proteins). The amounts of carbohydrate and lipid being oxidized in the body at any given time can be calculated from the volumes of 02 consumption and CO2 exhalation by laboratory animals (and humans) in metabolic chambers. For a review of the methodology and the theoretical basis of indirect calorimetry, see Ferrannini, Metabolism, 37, 287-301, 1988.
# An established, commercially available metabolic chamber apparatus (Oxymax, columbus Instruments, Ohio) was used to determine the gas exchange of vehicle-treated and compound (Ia)-treated Wistar rats in order to make precise and noninvasive measurements of the changes in the nature of the energetic substrate being oxidized by Wistar rats. Table 5 summarizes the data of the calculated lipid utilization determined for animals treated with two doses of compound (Ia), 10 and 30 mg/kg, administered subcutaneously 30 min. before starting the gas exchange measurements.
smiles,measurement,setting,value
"CO[C@H]1CCCC[C@@H](c2ccccc2)OC(=O)[C@@H](C)C2(O)O[C@H]([C@@H](C)[C@H](O)[C@H]2OC)[C@@H](C)/C=C/[C@H]1OC [Cpd (Ia), Soraphen A 1-α]",Fold stimulation over palmitate oxidation rate in the absence of test compounds,[1],3.5 fold
same,Palmitate oxidation rate,[1],13.7 +/− 0.7 pmol · h^−1 · well^−1
same,Duration of effect (entire assessment period),[2],6 h
same,Time after administration at which the effect is apparent,[2],approx. 60 min
same,% increase over vehicle,[2]; 5 min,−15%
same,Accumulated 14CO2 exhaled,[2]; 5 min,133 +/− 41 cpm
same,% increase over vehicle,[2]; 15 min,−30%
same,Accumulated 14CO2 exhaled,[2]; 15 min,121 +/− 36 cpm
same,% increase over vehicle,[2]; 30 min,17%
same,Accumulated 14CO2 exhaled,[2]; 30 min,211 +/− 32 cpm
same,% increase over vehicle,[2]; 60 min,41%
same,Accumulated 14CO2 exhaled,[2]; 60 min,544 +/− 102 cpm
same,% increase over vehicle,[2]; 90 min,40%
same,Accumulated 14CO2 exhaled,[2]; 90 min,1440 +/− 90 cpm
same,% increase over vehicle,[2]; 120 min,56%
same,Accumulated 14CO2 exhaled,[2]; 120 min,2614 +/− 136 cpm
same,% increase over vehicle,[2]; 150 min,62%
same,Accumulated 14CO2 exhaled,[2]; 150 min,4333 +/− 235 cpm
same,% increase over vehicle,[2]; 180 min,51%
same,Accumulated 14CO2 exhaled,[2]; 180 min,5729 +/− 397 cpm
same,% increase over vehicle,[2]; 240 min,56%
same,Accumulated 14CO2 exhaled,[2]; 240 min,9572 +/− 809 cpm
same,% increase over vehicle,[2]; 300 min,77%
same,Accumulated 14CO2 exhaled,[2]; 300 min,13261 +/− 1.445 cpm
same,% increase over vehicle,[2]; 360 min,60%
same,Accumulated 14CO2 exhaled,[2]; 360 min,16134 +/− 2.130 cpm
same,% increase over vehicle,"[3]; 10 mg/kg s.c., 33.5 min",12.6%
same,Accumulated lipid utilization,"[3]; 10 mg/kg s.c., 33.5 min",0.24 g/kg body weight
same,% increase over vehicle,"[3]; 10 mg/kg s.c., 67 min",9.6%
same,Accumulated lipid utilization,"[3]; 10 mg/kg s.c., 67 min",0.49 g/kg body weight
same,% increase over vehicle,"[3]; 10 mg/kg s.c., 100.5 min",9.8%
same,Accumulated lipid utilization,"[3]; 10 mg/kg s.c., 100.5 min",0.76 g/kg body weight
same,% increase over vehicle,"[3]; 10 mg/kg s.c., 134 min",9.8%
same,Accumulated lipid utilization,"[3]; 10 mg/kg s.c., 134 min",1.03 g/kg body weight
same,% increase over vehicle,"[3]; 10 mg/kg s.c., 167.5 min",9.2%
same,Accumulated lipid utilization,"[3]; 10 mg/kg s.c., 167.5 min",1.31 g/kg body weight
same,% increase over vehicle,"[3]; 10 mg/kg s.c., 201 min",8.4%
same,Accumulated lipid utilization,"[3]; 10 mg/kg s.c., 201 min",1.61 g/kg body weight
same,% increase over vehicle,"[3]; 10 mg/kg s.c., 234.5 min",7.8%
same,Accumulated lipid utilization,"[3]; 10 mg/kg s.c., 234.5 min",1.89 g/kg body weight
same,% increase over vehicle,"[3]; 10 mg/kg s.c., 268 min",7.9%
same,Accumulated lipid utilization,"[3]; 10 mg/kg s.c., 268 min",2.17 g/kg body weight
same,% increase over vehicle,"[3]; 10 mg/kg s.c., 301.5 min",7.7%
same,Accumulated lipid utilization,"[3]; 10 mg/kg s.c., 301.5 min",2.44 g/kg body weight
same,% increase over vehicle,"[3]; 10 mg/kg s.c., 335 min",7.2%
same,Accumulated lipid utilization,"[3]; 10 mg/kg s.c., 335 min",2.73 g/kg body weight
same,% increase over vehicle,"[3]; 10 mg/kg s.c., 368.5 min",6.3%
same,Accumulated lipid utilization,"[3]; 10 mg/kg s.c., 368.5 min",3.03 g/kg body weight
same,% increase over vehicle,"[3]; 30 mg/kg s.c., 33.5 min",28.4%
same,Accumulated lipid utilization,"[3]; 30 mg/kg s.c., 33.5 min",0.27 g/kg body weight
same,% increase over vehicle,"[3]; 30 mg/kg s.c., 67 min",19.2%
same,Accumulated lipid utilization,"[3]; 30 mg/kg s.c., 67 min",0.54 g/kg body weight
same,% increase over vehicle,"[3]; 30 mg/kg s.c., 100.5 min",14.5%
same,Accumulated lipid utilization,"[3]; 30 mg/kg s.c., 100.5 min",0.79 g/kg body weight
same,% increase over vehicle,"[3]; 30 mg/kg s.c., 134 min",13.2%
same,Accumulated lipid utilization,"[3]; 30 mg/kg s.c., 134 min",1.06 g/kg body weight
same,% increase over vehicle,"[3]; 30 mg/kg s.c., 167.5 min",12.5%
same,Accumulated lipid utilization,"[3]; 30 mg/kg s.c., 167.5 min",1.35 g/kg body weight
same,% increase over vehicle,"[3]; 30 mg/kg s.c., 201 min",11.8%
same,Accumulated lipid utilization,"[3]; 30 mg/kg s.c., 201 min",1.66 g/kg body weight
same,% increase over vehicle,"[3]; 30 mg/kg s.c., 234.5 min",11.7%
same,Accumulated lipid utilization,"[3]; 30 mg/kg s.c., 234.5 min",1.96 g/kg body weight
same,% increase over vehicle,"[3]; 30 mg/kg s.c., 268 min",12.2%
same,Accumulated lipid utilization,"[3]; 30 mg/kg s.c., 268 min",2.26 g/kg body weight
same,% increase over vehicle,"[3]; 30 mg/kg s.c., 301.5 min",12.5%
same,Accumulated lipid utilization,"[3]; 30 mg/kg s.c., 301.5 min",2.55 g/kg body weight
same,% increase over vehicle,"[3]; 30 mg/kg s.c., 335 min",12.3%
same,Accumulated lipid utilization,"[3]; 30 mg/kg s.c., 335 min",2.86 g/kg body weight
same,% increase over vehicle,"[3]; 30 mg/kg s.c., 368.5 min",11.5%
same,Accumulated lipid utilization,"[3]; 30 mg/kg s.c., 368.5 min",3.18 g/kg body weight
same,Duration of effect on lipid oxidation,[3]; 10 and 30 mg/kg s.c.,at least 6 hours
